Entries after “also recorded” stand apart in the source; their conditions may differ. Where two headings read alike, the source gives them in different places.
Experiments:
[1] = tested on: U87, M1123 and Mayo39 glioblastoma cultures; assay: GBM cell viability, pooled statement on IC50 shift; format: cell-based; conditions: with 5 μM Spironolactone
[2] = tested on: Mayo39 (Glioblastoma cell line); assay: Mayo39 cell viability in vitro; format: cell-based
[3] = tested on: subcutaneous U87 xenograft tumors; conditions: beginning on ~day 25
Procedure: (§1) SCID mice bearing pre-established subcutaneous U87 xenograft tumors were treated with Spironolactone alone, LP-184 alone or their combination. Spironolactone treatment began on post implantation day 8 at 25 mg/kg intraperitoneally 5 days per week, and LP-184 on day 9 at 4 mg/kg intravenously every other day for 4 doses.

[4] = tested on: M1123 (glioblastoma cell line); assay: M1123 cell viability in vitro; format: cell-based
[5] = tested on: subcutaneous U87 xenograft tumors; assay: Subcutaneous U87 xenograft in SCID mice; conditions: Spironolactone 25 mg/kg i.p. 5 days per week from day 8; LP-184 4 mg/kg i.v. every other day for 4 doses from day 9
Procedure: as §1

[6] = tested on: U87 (glioblastoma cell line); assay: U87 cell growth / survival / viability in vitro; format: cell-based; conditions: for IC50: Homo sapiens, U-87 MG
[7] = tested on: RPMI 8226 human myeloma cell lines; assay: RPMI 8226 cell growth / cytotoxicity in vitro; format: cell-based
[8] = tested on: 22RV1 (prostate cell line); assay: 22RV1 cell growth / survival in vitro; format: cell-based; conditions: 10 μM spironolactone alone
[9] = tested on: ACHN (renal cell carcinoma cell line); assay: ACHN cell growth / survival in vitro; format: cell-based; conditions: 10 μM spironolactone alone
[10] = tested on: CHLA-06 (atypical teratoid rhabdoid tumor cell line); assay: CHLA-06 cell growth / survival in vitro; format: cell-based; conditions: spironolactone alone (10 μM)
[11] = target: T1, ERCC3 (Homo sapiens, UniProt P19447); assay: ERCC3 western blot in glioblastoma cell lines; format: cell-based; conditions: 10 μM spironolactone, over 24-72 hours
T1 construct: endogenous in cells; host or cells: M1123, Mayo39, U87 glioblastoma cell lines
T1 sequence (P19447 1-782): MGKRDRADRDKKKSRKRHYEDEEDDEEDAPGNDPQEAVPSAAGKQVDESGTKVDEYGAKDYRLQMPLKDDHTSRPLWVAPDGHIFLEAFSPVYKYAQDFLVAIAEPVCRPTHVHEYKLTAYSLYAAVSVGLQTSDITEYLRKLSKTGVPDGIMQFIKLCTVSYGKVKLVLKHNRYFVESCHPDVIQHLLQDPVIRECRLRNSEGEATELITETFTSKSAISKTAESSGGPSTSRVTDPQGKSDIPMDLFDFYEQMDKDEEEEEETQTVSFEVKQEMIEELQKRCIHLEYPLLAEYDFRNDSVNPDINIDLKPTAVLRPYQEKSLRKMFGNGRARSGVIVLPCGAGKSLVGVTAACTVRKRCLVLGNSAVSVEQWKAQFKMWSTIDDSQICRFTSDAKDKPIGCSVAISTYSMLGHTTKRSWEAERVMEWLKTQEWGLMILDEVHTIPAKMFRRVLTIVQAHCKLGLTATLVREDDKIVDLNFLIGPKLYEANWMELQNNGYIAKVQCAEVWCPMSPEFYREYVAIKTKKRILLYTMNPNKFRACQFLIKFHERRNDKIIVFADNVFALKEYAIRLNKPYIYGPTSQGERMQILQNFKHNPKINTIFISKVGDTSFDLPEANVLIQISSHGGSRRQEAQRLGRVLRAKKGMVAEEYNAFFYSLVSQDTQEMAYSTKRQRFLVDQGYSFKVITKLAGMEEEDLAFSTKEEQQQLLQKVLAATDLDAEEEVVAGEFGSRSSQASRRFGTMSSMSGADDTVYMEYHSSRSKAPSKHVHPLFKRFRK
Procedure: Representative images show quantification of ERCC3 western blot intensity with significant Spironolactone-mediated ERCC3 downregulation over 24-72 hours in different glioblastoma cell lines.

[12] = tested on: CAKI-2 (papillary renal cell carcinoma cell line); assay: CAKI-2 cell growth / survival in vitro; format: cell-based; conditions: spironolactone alone
[13] = LP-184 alone, read-out: LP-184 alone IC50 [mean value
[14] = with 5 uM Spironolactone, read-out: LP-184 IC50 [mean value, nM] in combination with 5 uM Spironolactone

| Structure (SMILES) | decrease in LP-184 IC50s [1] | IC50 [2, 13] | IC50 [2, 14] | tumor regrowth (animals) [3] | IC50 [4, 13] | IC50 [4, 14] | tumor growth / tumor regression [5] | IC50 [6, 13] | IC50 [6, 14] | reduction of LP-284 IC50 ([7]; by 10 μM spironolactone) | cell growth rates [8] | cytotoxicity ([7]; 10 μM spironolactone treatment alone) | cell growth rates [9] | growth rates [10] | ERCC3 protein level (western blot) ([11]; M1123) | ERCC3 protein level (western blot) ([11]; Mayo39) | ERCC3 protein level (western blot) ([11]; U87) | growth rates ([6]; spironolactone alone) | growth rates [12] |
| --- | --- | --- | --- | --- | --- | --- | --- | --- | --- | --- | --- | --- | --- | --- | --- | --- | --- | --- | --- |
| CC1=C(CN(O)C(N)=O)C2=C(C)C3(CC3)[C@@](C)(O)C(=O)C2=C1 [LP-184, (−)-hydroxyureamethyl acylfulvene] | 3-6 fold | 313 nM | 94.3 nM | 5/5 | 151 nM | 39.7 nM | complete or near complete tumor regression | 250 nM | 37.6 nM |  |  |  |  |  |  |  |  |  |  |
| CC1=C(CN(O)C(N)=O)C2=C(C)C3(CC3)[C@](C)(O)C(=O)C2=C1 [LP-284, (+)-hydroxyureamethyl acylfulvene] |  |  |  |  |  |  |  |  |  | 2.4 fold |  |  |  |  |  |  |  |  |  |
| CC(=O)SC1CC2=CC(=O)CCC2(C)C2CCC3(C)C(CCC34CCC(=O)O4)C12 (stereo not drawn) [Spironolactone, 7α-Acetylthiospirolactone] |  |  |  |  |  |  | no effect on tumor growth |  |  |  | did not change the cell growth rates | did not cause cytotoxicity | did not change the cell growth rates | did not substantially change the growth rates; also recorded: did not change the cell growth rates | time-dependent depletion | time-dependent depletion | time-dependent depletion | did not substantially change the growth rates | did not substantially change the growth rates |
